According to US8388930B2, “Diagnosis and assessment of skeletal related disease using calcium 41” (Lawrence LIvermore National Security, LLC, priority 2004, dated 2013):

What was measured:
[1] = cited from earlier work
[2] = system: human xenograft model of metastatic bone disease from prostate cancer; test: tracer distribution and 41Ca release from pre-labeled bones in human xenograft model of metastatic bone disease; assay type: in vivo, nude mice
Source text: However, the ultimate value of these techniques for individual patients is uncertain, due (in part) to high natural variability of biomarkers in urine and serum (Kannis J A, McCloskey E V. Bone turnover and biochemical markers in malignancy. Cancer. 1997; 80:1538-45). Applicants believe that labeling the human skeleton with a ^41Ca tracer and monitoring urinary tracer abundance will provide a non-invasive, highly sensitive, clinically useful measure of bone turnover. The longest half-life isotope of calcium, ^41Ca, provides a sensitive method for tracking short and long-term bone turnover parameters. Due to extremely low natural abundance (<10^−15), a single sub-physiological ^41Ca dose (less than 1 ug=4 kBq=0.1 uCi) remains quantifiable via accelerator mass spectrometry (AMS) in blood and urine for many years: this longevity within the body's primary calcium pool makes ^41Ca variation specific to bone turnover (Weaver C M. Use of calcium tracers and biomarkers to determine calcium kinetics and bone turnover. Bone. 1998; 22(5):103S-104S). […]
^41Ca remains quantifiable via accelerator mass spectrometry (AMS) in human urine and blood for many years following a single chemically and radiologically benign oral or intravenous dose; this longevity makes urinary ^41Ca content very specific to bone turnover. […]

[3] = urinary 41Ca/Ca variability in monthly urine samples after oral 41Ca dose; assay type: in vivo; conditions: days 500 to 700 after 1.2 ng oral 41Ca dose, six human volunteers
Source text: ^41Ca remains quantifiable via accelerator mass spectrometry (AMS) in human urine and blood for many years following a single chemically and radiologically benign oral or intravenous dose; this longevity makes urinary ^41Ca content very specific to bone turnover. […] Applicants also measured tracer distribution and increased ^41Ca release from pre-labeled bones in a human xenograft model of metastatic bone disease from prostate cancer. […] Low natural variability of urinary ^41Ca/Ca in humans will enable a non-invasive, highly sensitive clinical measure of bone turnover perturbations from metastatic bone disease.

- tracer distribution ([2]; human xenograft tumor model in nude mice): preferentially labels bone
- 41Ca/Ca scatter about individual linear fits [3]: 5±3%
SMILES: [41Ca] [^41Ca, radioactive calcium isotope ^41Ca]
- lifetime radioactive exposure from ingested dose ([1]; ingested): < 2e-10 Sv/Bq
- lifetime radioactive exposure from injected dose ([1]; injected): < 7e-10 Sv/Bq
- serum 41Ca/Ca correlation with disease measures ([2]; serum, pre-labeled bones, xenograft model of prostate cancer bone metastasis): positively correlating with tumor size, skeletal disruption, serum tumor markers, and degree of hypercalcemia
